Laboratory results reported in PubChem BioAssay (NCI).
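Cultured in 96-well plates, cells were exposed to test compound for 48 hours across five concentrations. Definition used: TGI = concentration required for complete inhibition of growth.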

Tests used:
Experiment in all cases: NCI anticancer screen, dose series, 48 h
[1] = test system: A498 renal
[2] = test system: ACHN renal
[3] = test system: BT-549 breast
[4] = test system: HT29 colon
[5] = test system: MOLT-4 leukemia
[6] = test system: OVCAR-3 ovarian
[7] = test system: OVCAR-5 ovarian
[8] = test system: RXF 393 renal
[9] = test system: SN12C renal
[10] = test system: TK-10 renal
[11] = test system: SR leukemia

| Compound | TGI [1] [µM] | TGI [2] [µM] | TGI [3] [µM] | TGI [4] [µM] | TGI [5] [µM] | TGI [6] [µM] | TGI [7] [µM] | TGI [8] [µM] | TGI [9] [µM] | TGI [10] [µM] | TGI [11] [µM] |
| --- | --- | --- | --- | --- | --- | --- | --- | --- | --- | --- | --- |
| CCc1ccc(CCN2CCCCC2)nc1 | > 100 | > 100 | > 100 | > 100 | > 100 | > 100 | > 100 | > 100 | > 100 | > 100 | – |
| Oc1cc2c3c(c1)c1cc4c(cc1c[n+]3CC2)OCO4 | > 74.7 | > 100 | 8.1 | > 42.2 | – | > 50.9 | > 100 | > 68.8 | 5.71 | > 75.7 | – |
| C[n+]1c2ccccc2c(/C=N\NS(=O)(=O)c2ccc(O)c(C(=O)O)c2)c2ccccc21 | > 100 | > 100 | – | > 100 | 62 | > 100 | > 100 | > 100 | > 100 | > 100 | – |
| Cc1cccc2c(=O)cc(-c3ccccc3)[nH]c12 | 36 | > 100 | – | > 100 | > 100 | > 100 | – | 38.2 | > 100 | > 100 | > 100 |
| CC1(C)N=C(/C(Cl)=[N+](/[O-])C(=O)c2ccc(F)cc2)C(C)(C)N1O | – | 36.5 | – | 41 | – | 31.2 | 36.1 | 28.8 | 29.2 | 29.7 | 27.8 |
| CC(C)CCCCCCCCCCCCC(=O)NCC(=O)NC1C(C)OC(Nc2ncnc3c2ncn3C)C(O)C1O (configuration not stated) | 24.2 | – | – | > 100 | > 100 | > 100 | 97 | > 25.7 | > 100 | – | – |
| O=C1CCC23CC(C=CC=C12)n1c(=O)n(-c2ccccc2)c(=O)n13 (configuration not stated) | > 100 | – | – | > 100 | > 100 | > 100 | > 100 | > 100 | > 100 | – | – |
| Cc1cn(C2CC(n3cc(Cn4cc(I)c(=O)[nH]c4=O)nn3)C(CO)O2)c(=O)[nH]c1=O (configuration not stated) | > 100 | > 100 | > 100 | – | > 100 | > 100 | > 100 | > 100 | > 100 | > 100 | – |
| COc1ccc(N2C(=O)C3c4[nH]c5ccccc5c4C4CCC(C(C)(C)C)CC4C3C2=O)c(C)c1 (configuration not stated) | – | > 100 | > 100 | > 100 | > 100 | > 100 | – | > 100 | > 100 | > 100 | > 100 |
| CC(=O)O[C@H]1C(=O)[C@]2(C)[C@@H](OC(=O)OCCC(O)CO)C[C@H]3OC[C@@]3(OC(C)=O)[C@H]2[C@H](OC(=O)c2ccccc2)[C@]2(O)C[C@H](OC(=O)[C@H](O)[C@@H](NC(=O)c3ccccc3)c3ccccc3)C(C)=C1C2(C)C (some centres not stated) | 21.6 | > 100 | 15.9 | 0.526 | 12.7 | 0.0932 | > 36.6 | 17.9 | 19.8 | > 61.2 | – |
| CC(=O)NC1=C(NCCC(C)C)C(=O)c2ccccc2C1=O | – | > 50 | – | > 50 | > 50 | > 50 | – | > 50 | > 50 | > 50 | > 50 |
| COc1cc(/C=C2\S/C(=N/Nc3nc(-c4ccc(Br)cc4)cs3)NC2=O)cc(OC)c1OC | – | 25.4 | 33.8 | 32.5 | 9.51 | 30.3 | 83.1 | 19.4 | > 100 | 36.6 | – |
| O=[N+]([O-])/C(C(Cl)=C(Cl)Cl)=C(\SCc1ccccc1)N1CCCCC1 | 70.1 | 37.6 | – | 82.4 | 41.1 | 34.6 | 43.9 | 62.6 | 47.6 | > 100 | > 100 |
| COc1cc([C@@H]2OCC3C(c4ccc5c(c4)OCO5)OCC32)cc(OC)c1OC (some centres not stated) | > 100 | > 100 | – | > 100 | > 100 | > 100 | > 100 | > 100 | > 100 | – | > 100 |
| O=C(Nc1ccc(C2=NCCN2)cc1)c1cncc(C(=O)Nc2ccc(C3=NCCN3)cc2)c1 | > 100 | – | – | > 100 | > 100 | > 100 | > 100 | > 100 | > 100 | – | – |
| NC(=O)C(c1ccccc1)N1OC2C(=O)N(c3ccccc3)C(=O)C2C1c1c2ccccc2c(Cl)c2ccccc12 (configuration not stated) | – | > 100 | > 100 | > 100 | > 100 | > 100 | > 100 | > 100 | > 100 | – | > 100 |
| C[C@]12CC[C@H](O)CC1=CC[C@@H]1C2CC[C@]2(C)C(=O)N(N)C(=O)CC12 (some centres not stated) | > 100 | > 100 | – | > 100 | > 100 | > 100 | > 100 | > 100 | > 100 | > 100 | > 100 |
| CCCN=C1CCN(Cc2ccccc2)c2ccccc2N1 | 25.4 | 94.1 | 34.3 | 90.1 | 34.1 | > 100 | > 100 | 29.6 | > 100 | > 100 | – |
| Cc1cn(C2CC(N(O)C(N)=O)C(CO)O2)c(=O)[nH]c1=O (configuration not stated) | > 100 | > 100 | – | > 100 | > 100 | > 100 | > 100 | > 100 | > 100 | > 100 | – |
| CC(C)C1/C(=N/O)CC(c2ccccc2)N(N=O)C1c1ccccc1 (configuration not stated) | – | > 100 | > 100 | 39 | 95.6 | > 100 | – | > 100 | > 100 | > 100 | – |
| COC(=O)[C@H](Cc1c[nH]c2ccccc12)NP(=O)(O)OCC1C=CC(n2cc(C)c(=O)[nH]c2=O)O1 (some centres not stated) | > 100 | – | > 100 | > 100 | > 100 | > 100 | – | – | > 100 | – | – |
| CC1=CC2C(O1)C1C(=O)C=CC(=O)C1=CC2[N+](=O)[O-] (configuration not stated) | 40.6 | 12.8 | 29.6 | 45.7 | > 24.3 | 30.7 | 63.3 | 28.2 | 39.6 | 30.6 | – |
